Legend:
Format in all cases: in vivo
dopamine = assay: Combined ATN test in rats: apomorphine (APO) challenge, central dopamine antagonism; settings: Rattus norvegicus, sc, subcutaneous pretreatment, dose protecting 50% of animals, central dopamine antagonistic activity
α-adrenergic = assay: Combined ATN test in rats: norepinephrine (NOR) challenge, α-adrenergic antagonist activity; settings: Rattus norvegicus, sc, subcutaneous pretreatment, dose protecting 50% of animals
[1] = test system: serotonin 5HT2 -receptors; assay: Combined ATN test in rats: tryptamine (TRY) challenge, central and peripheral serotonin antagonism; settings: subcutaneous pretreatment, dose protecting 50% of animals; for TRY convulsions ED50: central serotonin antagonistic activity; for TRY hyperaemia ED50: peripheral serotonin antagonistic activity
Description: The central dopamine antagonistic and serotonin antagonistic activity of the subject compounds is evidenced by the experimental data obtained in the combined apomorphine (APO), tryptamine (TRY) and norepinephrine (NOR) test in rats. Said combined apomorphine, tryptamine and norepinephrine test is described in Arch. Int. Pharmacodyn., 227, 238-253 (1977) and provides an empirical evaluation of the relative specificity with which drugs may effect particular neurotransmitter systems centrally (CNS) as well as peripherally. […] Central dopamine antagonism is evaluated by challenging rats, subcutaneously pretreated with different doses of the test compound, with apomorphine which is a dopamine agonist. Next, serotonin antagonism is evaluated by challenging the same rats, subcutaneously pretreated with different doses of the test compound, with tryptamine which is an agonist at serotonin 5HT2 -receptors. Both central and peripheral serotonin antagonism can be assessed in this test. Centrally acting serotonin antagonists are potential antipsychotic drugs, in particular when simultaneously displaying dopamine antagonism in the first part of this test. Finally, α-adrenergic antagonistic activity of the test compounds is evaluated by challenging the same rats, subcutaneously pretreated with different doses of the test compound, with norepinephrine which is an α-adrenergic agonist.
The experimental data are summarized in Table 3 and expressed as ED50 values in mg/kg body weight, which are defined as the dose at which each of the tested compounds protects 50% of the tested animals from a relevant response evoked by the above-mentioned challenging substances. Column APO lists the results of the apomorphine challenge, indicating central dopamine antagonistic activity. Column TRY convulsions and TRY hyperaemia list the results of the tryptamine challenge, indicating central and peripheral serotonin antagonistic activity respectively. Column NOR lists the results of the norepinephrine challenge, indicating α-adrenergicantagonist activity. The favourable pharmacological properties of the compounds of formula (I) lie in their potent central dopamine (column APO) and serotonin (column TRY convulsions) antagonistic activity.

Row | Compound | ED50 (dopamine) [mg/kg] | ED50 (α-adrenergic) [mg/kg] | TRY convulsions ED50 [1] [mg/kg] | TRY hyperaemia ED50 [1] [mg/kg]
1 | Cc1nc2scc(C)n2c(=O)c1CCN1CC[C@H]2Nc3ccc(F)cc3[C@@H]2C1 (relative stereo) [Compound 16] | 0.25 | > 10 | 0.45 | 0.015
2 | Cc1nc2sccn2c(=O)c1CCN1CC[C@H]2Nc3ccccc3[C@@H]2C1 (racemic) [Compound 11, (±)-trans-6-[2-(1,3,4,4a,5,9b-hexahydro-2H-pyrido[4,3-b]indol-2-yl)ethyl]-7-methyl-5H-thiazolo[3,2-a]pyrimidin-5-one] | 0.31 |  | 0.31 | ≤ 0.04
3 | Cc1nc2n(c(=O)c1CCN1CC[C@@H]3[C@@H](C1)c1cc(F)ccc1N3c1ccc(F)cc1)CCCC2 (relative stereo) [Compound 25] | 0.31 |  | 0.12 | 0.02
4 | Cc1nc2sccn2c(=O)c1CCN1CC[C@H]2[C@H](C1)c1cc(F)ccc1N2c1ccc(F)cc1 (relative stereo) [Compound 22] | 1.25 | 0.5 | 1.25 | 0.08
5 | Cc1nc(NCc2ccccc2)n(C)c(=O)c1CCN1CC[C@H]2Nc3ccc(F)cc3[C@@H]2C1 (relative stereo) [Compound 31] | 1.25 | > 10 | ≥ 10 | ≤ 0.16
6 | Cc1nc2n(c(=O)c1CCN1CC[C@@H]3[C@@H](C1)c1cc(F)ccc1N3c1ccc(F)cc1)CCS2 (racemic) [Compound 23, (±)-trans-6-[2-[8-fluoro-5-(4-fluoro-phenyl)-1,3,4,4a,5,9b-hexahydro-2H-pyrido[4,3-b]indol-2-yl]ethyl]-2,3-dihydro-7-methyl-5H-thiazolo[3,2-a]pyrimidin-5-one] | 0.12 | 0.03 | 0.08 | ≤ 0.01
7 | Cc1nc2sccn2c(=O)c1CCN1CC[C@@H]2[C@@H](C1)c1ccccc1N2C (relative stereo) [Compound 19] | 8 | 5 | 1.25 | 0.31
8 | Cc1nc2ccccn2c(=O)c1CCN1CC[C@H]2Nc3ccc(Cl)cc3[C@@H]2C1 (relative stereo) [Compound 28] | 0.08 | > 10 | 0.12 | 0.005
9 | Cc1nc2scc(C)n2c(=O)c1CCN1CC[C@@H]2[C@@H](C1)c1cc(F)ccc1N2c1ccc(F)cc1 (relative stereo) [Compound 24] | 5 |  | 1.25 | ≤ 0.04
10 | Cc1nc2scc(C)n2c(=O)c1CCN1CC[C@H]2Nc3ccc(Cl)cc3[C@@H]2C1 (relative stereo) [Compound 27] | 0.31 |  | 0.31 | 0.005
11 | Cc1nc2n(c(=O)c1CCN1CC[C@H]3Nc4ccccc4[C@@H]3C1)CCS2 (relative stereo) [Compound 13] | 2.5 |  | 5 | ≤ 0.04
12 | Cc1nc2ccccn2c(=O)c1CCN1CC[C@@H]2[C@@H](C1)c1ccccc1N2C (relative stereo) [Compound 20] | 1.25 | 5 | 1.25 | ≤ 0.63
13 | Cc1nc2scc(C)n2c(=O)c1CCN1CC[C@H]2Nc3ccccc3[C@@H]2C1 (relative stereo) [Compound 12] | 1.25 | > 10 | 1.25 | 0.02
14 | COc1ccc2c(c1)[C@@H]1CN(CCc3c(C)nc4ccccn4c3=O)CC[C@H]1N2 (relative stereo) [Compound 30] | ≥ 10 |  | 2 | ≤ 0.16
15 | Cc1nc2ccccn2c(=O)c1CCN1CC[C@H]2Nc3ccc(F)cc3[C@@H]2C1 (relative stereo) [Compound 17] | 0.08 |  | 0.5 | ≤ 0.04
16 | Cc1nc2ccccn2c(=O)c1CCN1CC[C@H]2Nc3ccccc3[C@@H]2C1 (relative stereo) [Compound 14] | 0.31 |  | 1.25 | ≤ 0.16
17 | COc1ccc2c(c1)[C@@H]1CN(CCc3c(C)nc4sccn4c3=O)CC[C@H]1N2 (relative stereo) [Compound 29] | 5 |  | 5 | 0.02
18 | Cc1nc2sccn2c(=O)c1CCN1CC[C@H]2Nc3ccc(Cl)cc3[C@@H]2C1 (relative stereo) [Compound 26] | 0.03 |  | 0.02 | 0.005
19 | Cc1nc2sccn2c(=O)c1CCN1CC[C@H]2Nc3ccc(F)cc3[C@@H]2C1 (racemic) [Compound 15, (±)-trans-6-[2-(8-fluoro-1,3,4,4a,5,9b-hexahydro-2H-pyrido[4,3-b]indol-2-yl)ethyl]-7-methyl-5H-thiazolo[3,2-a]pyrimidin-5-one] | 0.31 | > 10 | 0.31 | ≤ 0.0025
20 | Cc1nc2n(c(=O)c1CCN1CC[C@H]3Nc4ccc(F)cc4[C@@H]3C1)CCCC2 (relative stereo) [Compound 18] | 0.31 |  | 2 | 0.02

From patent US6057325A, “Hexahydro-pyrido(4,3-b)indole derivatives as antipsychotic drugs” (Janssen Pharmaceutia, N.V., priority 1996, dated 2000)
